Reference: patent publication US20210386761A1, “COMPOSITION FOR PREVENTING OR TREATING INFLAMMATORY BOWEL DISEASE, CONTAINING, AS ACTIVE INGREDIENT, TAURODEOXYCHOLIC ACID OR PHARMACEUTICALLY ACCEPTABLE SALT THEREOF” (SHAPERON INC., priority 2019, published 2021)

How the values were obtained:
[1] = test system: lamina propria mononuclear cells (LPMC) in the colon tissue; test: Inflammatory cell analysis (FACS of LPMC from colon tissue) in 2% DSS mouse model; type: in vivo; settings: Day 7; for numbers of CD11b+, Ly6g+, Ly6c+, CD3+, CD4+, CD8+, CD19+, and MHCII+CD11c+ LPMCs in the colon tissue: FIG. 7A
Protocol: A colon tissue was obtained from a mouse which had been subjected to an experiment by the same method as that described in <Example 2> and put into 30 ml of EDTA and dissociated by being stirred at 37° C. for 30 minutes in order to remove mucus. Next, the tissue was drained with a strainer (70 μm) and washed with warm DPBS. The washing process was repeated a total of 4 to 5 times. An enzyme mixture was prepared by adding 2.35 ml of RPMI 1640 or DMEM, 100 μl of enzyme D, 50 μl of enzyme R, and 12.5 μl of enzyme A to a gentleMACS C tube (Miltenyi Biotec, 130-096-334, Bergisch Gladbach, Germany). The tissue was transferred to the gentleMACS C tube containing the enzyme mixture and dissociated using the gentleMACS Dissociator (Miltenyi Biotec, 130-093-235, Bergisch Gladbach, Germany). Next, the reaction was conducted at 37° C. for 40 minutes in a thermal incubator (Thermo scientific, BB-15, Waltham, Mass., USA) under continuous rotation using a MACSmix Tube Rotator. The digested cells were resuspended in 4 ml of 40% Percoll solution. […]
In order to confirm changes in the number of inflammatory cells, FACS analysis was performed. […] Next, the cells were washed two times with DPBS, resuspended in 200 μl DAPI, then analyzed using a flow cytometer (LSR Fortessa cytometer, Mississauga, Canada), and graphed.
Specifically, female C57BL/6 mice were fed with a 2% DSS solution together with drinking water for 7 days from Day 0 of the experiment by the same method as that described in <Example 1>, DPBS or 5 mg/kg TDCA was administered to the mice by oral gavage one time a day for 6 days from Day 1 of the experiment, and the body weight and DAI were measured daily. […]
Specifically, female C57BL/6 mice were fed with a 2% DSS solution together with drinking water for 7 days from Day 0 of the experiment by the same method as that described in <Example 1>, DPBS or 5 mg/kg TDCA was administered to the mice by oral gavage from Day 1 of DSS administration or 2 days before DSS administration, and the body weight and DAI were measured daily. […]

[2] = test system: IL-1β; test: Pro-inflammatory cytokine ELISA of colon tissue, IL-1β; type: in vivo, mouse; settings: for IL-1β in the colon tissue: Day 7
Protocol: (§1) In order to evaluate the clinical symptoms-improving efficacy in comparison with those by clinical prescription drugs, inflammatory bowel disease was induced by 7-day or repeated administration of 3% or 2.5% DSS solution, and tofacitinib 10 mg/kg, 5-ASA 100 mg/kg or 200 mg/kg, prednisolone 1 mg/kg, and TDCA 2.5 mg/kg were administered one time a day from the start date of DSS administration. From the start date of DSS administration, TDCA 2.5 mg/kg was administered one time a day (QD), two times a day (BID), and three times a day (TID).
(§2) A colon was obtained from a mouse which had been subjected to an experiment by the same method as that described in <Example 2>, the peripheral colon was cut into 2 cm in length and the weight was recorded. Next, the colon was chopped into 1 mm pieces and frozen on ice, treated with 500 μl of cold DPBS containing protease inhibitor (Roche, 11836170001, Basel, Switzerland), and homogenized for 10 to 20 seconds using an electric homogenizer (IKA T10 Basic, Wilmington, SE, USA). The homogenate was centrifuged at 4° C. for 10 minutes at 12,000×g to obtain a supernatant. ELISA analysis was performed using the obtained supernatant, IL-6 DuoSet ELISA kit (R & D systems, USA), IL-1β DuoSet ELISA kit (R & D systems, USA), and TNF-α DuoSet ELISA kit (R & D systems, USA) according to the manufacturer's procedure to confirm the production of pro-inflammatory cytokines.
(§3) Specifically, female C57BL/6 mice were fed with a 2% DSS solution together with drinking water for 7 days from Day 0 of the experiment by the same method as that described in <Example 1>, DPBS or 5 mg/kg TDCA was administered to the mice by oral gavage one time a day for 6 days from Day 1 of the experiment, and the body weight and DAI were measured daily. As a control, mice freely fed with drinking water were used. Next, the mice were sacrificed on Day 7 of the experiment by the same method as that described in <Example 3>, and inflammatory cell and proinflammatory cytokine analysis was performed.
as §3, with “oral gavage from Day” for “oral gavage one time a day for 6 days from Day”, “1 of DSS administration or 2 days before DSS administration, and the” for “1 of the experiment, and the”, “3>, and the inflammatory cell” for “3>, and inflammatory cell”

[3] = test system: TNF-α; test: Pro-inflammatory cytokine ELISA of colon tissue, TNF-α; type: in vivo, mouse; settings: for TNF-α in the colon tissue: Day 7, FIG. 7B
Protocol: as §1, §2
as §3, with “oral gavage from Day” for “oral gavage one time a day for 6 days from Day”, “1 of DSS administration or 2 days before DSS administration, and the” for “1 of the experiment, and the”, “3>, and the inflammatory cell” for “3>, and inflammatory cell”

[4] = test system: IL-6; test: Pro-inflammatory cytokine ELISA of colon tissue, IL-6; type: in vivo, mouse; settings: for IL-6 in the colon tissue: Day 7
Protocol: as §1, §2, §3
as §3, with “oral gavage from Day” for “oral gavage one time a day for 6 days from Day”, “1 of DSS administration or 2 days before DSS administration, and the” for “1 of the experiment, and the”, “3>, and the inflammatory cell” for “3>, and inflammatory cell”

[5] = test system: inflammasome activity of bone marrow-derived macrophages; test: Inhibition of IL-1β secretion of bone marrow-derived macrophages (LPS then ATP or BzATP); type: cell-based; settings: Mus musculus, Macrophage, LPS 10 ng/ml 3 h, TDCA 1 h, ATP 0.5 mM or BzATP 0.3 mM 1 h, FIGS. 10A and 10B
Protocol: Bone marrow was collected from a DPBS-administered mouse which had been subjected to an experiment by the same method as that described in <Example 2>, induced to differentiate into macrophages, then pretreated with LPS (10 ng/ml) for 3 hours so as to be 4×10^4 cells in a 96-well plate, treated with TDCA at various concentrations for 1 hour, then treated with ATP (0.5 mM) or BzATP (0.3 mM) for an additional 1 hour, and cultured, and the amount of IL-1β in the cell culture was measured and analyzed using an ELISA kit (R & D systems, USA) according to the manufacturer's procedure.

[6] = DSS+TDCA group: 5 mg/kg TDCA from Day 1 of DSS
[7] = DSS+preTDCA group: 5 mg/kg TDCA from 2 days before DSS
[8] = 2% DSS 7 days, 5 mg/kg TDCA oral gavage, FIG. 3B
[9] = 3% DSS 7 days, TDCA 2.5 mg/kg vs tofacitinib 10 mg/kg and 5-ASA 100 mg/kg
[10] = DSS+TDCA group: 5 mg/kg TDCA from Day 1 of DSS, FIG. 7B
[11] = DSS+preTDCA group: 5 mg/kg TDCA from 2 days before DSS, FIG. 7B

C[C@H](CCC(=O)NCCS(=O)(=O)O)[C@H]1CC[C@H]2[C@@H]3CC[C@@H]4C[C@H](O)CC[C@]4(C)[C@H]3C[C@H](O)[C@]12C [TDCA, sodium taurodeoxycholic acid]
numbers of CD11b+, Ly6g+, and Ly6c+ LPMCs in the colon tissue ([1]; 2% DSS 7 days, 5 mg/kg TDCA oral gavage, vs DSS+DPBS group, FIG. 3A): decreased
numbers of CD11b+, Ly6g+, Ly6c+, CD3+, CD4+, CD8+, CD19+, and MHCII+CD11c+ LPMCs in the colon tissue [1, 6]: decreased
numbers of CD11b+, Ly6g+, Ly6c+, CD3+, CD4+, CD8+, CD19+, and MHCII+CD11c+ LPMCs in the colon tissue [1, 7]: decreased
IL-1β in the colon tissue [2, 8]: decreased
concentration of IL-1β in the colon tissue, compared with clinical prescription drugs [2, 9]: more effectively suppressed the concentration of IL-1β than tofacitinib 10 mg/kg and 5-ASA 100 mg/kg
IL-1β in the colon tissue [2, 10]: decreased
IL-1β in the colon tissue [2, 11]: decreased
concentration of TNF-α in the colon tissue, compared with clinical prescription drugs [3, 9]: equivalent to those by tofacitinib 10 mg/kg and 5-ASA 100 mg/kg
TNF-α in the colon tissue [3, 6]: decreased
TNF-α in the colon tissue [3, 7]: decreased
IL-6 in the colon tissue [4, 8]: decreased
concentration of IL-6 in the colon tissue, compared with clinical prescription drugs [4, 9]: equivalent to those by tofacitinib 10 mg/kg and 5-ASA 100 mg/kg
IL-6 in the colon tissue [4, 10]: decreased
IL-6 in the colon tissue [4, 11]: decreased
IC50 [5]: 60 to 90 nM
